As usually defined, the IC50 is the concentration at which inhibition is half-maximal.

The source of these data is PMC3113660 (Journal of medicinal chemistry, 2010).

Read-outs that look alike come from different tables or passages of the source.

One data set deals with L6 rat myoblast cells. Description: In vitro cytotoxicity assay. The format is cell-based. The settings on record: L6 cells; relative to 5,5′-disubstituted analogue 1.
Data set [1] relates to Leishmania donovani (MHOM/SD/62/1S-CL2D) axenic amastigotes. The experiment in a line: Antileishmanial assay. The format is cell-based. The following applies: in vitro, axenic amastigotes.
Data set [2] concerns T. brucei rhodesiense STIB900. Format: in vivo, mice. The following applies: number of mice that survive and are parasite free for 60 days.
For data set [3], the system named is Trypanosoma brucei rhodesiense (STIB900). Description: In vitro growth inhibition assay of T. brucei rhodesiense. The format is cell-based. The settings on record: ratio IC50 (L6)/IC50 (T. brucei rhodesiense).
In data set [4] the test system is Plasmodium falciparum (K1, resistant to chloroquine). The experiment in a line: In vitro growth inhibition assay of P. falciparum. The format is cell-based. The following applies: for IC50: Plasmodium falciparum.
The subject of data set [5] is P. berghei. Description: P. berghei mouse model. The following applies: subcutaneously at 30 mg/kg daily for four days; data not shown. The format is in vivo.
Data set [6] in a line: In vitro cytotoxicity assay. Format: cell-based, rat. The following applies: rat.
The subject of data set [7] is P. berghei. The settings on record: mice; cited from earlier work.
Where [8] appears, read: K1, read-out: antiplasmodial IC50, P. falciparum, in vitro.

Turning to `Cl.Cl.N=C(N)c1ccc(-n2cc(-c3cccc(C(=N)N)c3)nn2)cc1` [Compound 16, 1-(4-Amidinophenyl)-4-(3-amidinophenyl)-1H-1,2,3-triazole Dihydrochloride], the fold increased cytotoxicity in the data set with L6 rat myoblast cells is approximately 25 fold. In addition, the “activity against L. donovani (in words)” value in data set [1] is given as “active”. Besides, the cures entry in data set [2] (4 × 5 mg/kg ip) is recorded as “curing one out of four mice”.
Turning to `COc1ccc(C(=N)N)cc1-c1cn(-c2ccc(C(=N)N)cc2)nn1.Cl.Cl` [Compound 22, 4-(5-Amidino-2-methoxyphenyl)-1-(4-amidinophenyl)-1H-1,2,3-triazole Dihydrochloride], the “SIT, selectivity index for T. brucei rhodesiense” value in data set [3] was more than 24750. For the same molecule, the IC50 in data set [4] (setting [8]) was less than 0.058 µM. For the same molecule, the “activity against L. donovani (in words)” value in data set [1] is given as “active”. Further, the cures entry in data set [2] (4 × 5 mg/kg ip) is given as “curing at least two out of four animals”.
Take `Cl.Cl.N=C(N)c1ccc(-c2cn(-c3ccc(C(=N)N)cc3)nn2)cc1` [Compound 46, 1,4-Bis(4-amidinophenyl)-1H-1,2,3-triazole Dihydrochloride]: the fold increased cytotoxicity with L6 rat myoblast cells was approximately 25 fold. Besides, the IC50 in data set [4] (setting [8]) was less than 0.058 µM. For the same molecule, the cures result in data set [2] (4 × 0.5 mg/kg ip) is “no cures”.
As to `Cl.Cl.Oc1cc(C2=NCCN2)ccc1-c1cn(-c2ccc(C3=NCCN3)cc2)nn1` [Compound 60, 4-[4-(4,5-Dihydro-1H-imidazol-2-yl)-2-hydroxyphenyl]-1-[4-(4,5-dihydro-1H-imidazol-2-yl)phenyl]-1H-1,2,3-triazole Dihydrochloride], the “times as active against P. falciparum” value in data set [4] (relative to diimidazoline 48) came out at 3 times. Moreover, the “times greater antiplasmodial selectivity index SIP” value in data set [4] (relative to pentamidine) is approximately 400 times. The “effect on blood parasite count” value in the data set on P. berghei [5] is “did not reduce the blood parasite count”.
With `C[C@@H]1CC[C@H]2[C@@H](C)C(=O)O[C@@H]3O[C@@]4(C)CC[C@@H]1[C@]32OO4` [artemisinin, reference compound], in data set [6], the midpoint of inhibition, the IC50 at 70 h, lay at 450 µM. Also, the “SIP, selectivity index for P. falciparum” value in data set [4] (ratio IC50 (L6)/IC50 (P. falciparum)) came to 75000.
As to `CCN(CC)CCCC(C)Nc1ccnc2cc(Cl)ccc12` (centres unmarked) [chloroquine, reference compound], the IC50 at 70 h in data set [6] is 117 µM. Moreover, in data set [4] (K1, read-out: P. falciparum IC50), the IC50 came out at 0.124 µM.
`N=C(N)c1ccc(-c2ccc(-c3ccc(C(=N)N)cc3)o2)cc1` [furamidine, 2,5-bis(4-amidinophenyl)furan]: the “activity against trophozoite-induced P. berghei infection” value in the data set on P. berghei [7] was “inactive”.
In the case of `Nc1nc(N)nc(Nc2ccc([As]3SCC(CO)S3)cc2)n1` (centres unmarked) [melarsoprol], it took 7.78 µM to reach half-maximal inhibition in data set [6] (IC50 at 70 h).
The same measure, in the same setting: the figure for `COc1cc([C@@H]2c3cc4c(cc3[C@H](O)[C@H]3COC(=O)[C@H]23)OCO4)cc(OC)c1OC` [podophyllotoxin] is 0.02 µM.
